From patent publication US20140179519A1, “N-THIO-ANTHRANILAMIDE COMPOUNDS AND THEIR USE AS PESTICIDES” (BASF SE, priority 2011, published 2014)

Columns and labels:
[1] = system: Orchid thrips (Dichromothrips corbetti); assay: CE.1 Orchid thrips floral-immersion test, comparison with comparative compounds; assay type: in vivo; settings: for % activity (mortality of Orchid thrips in %, vs. untreated control): floral immersion, 72 hours after treatment
Experimental: (§1) The activity summarized in the tables hereinbelow are given as percentage of mortality in comparison with untreated control
Dichromothrips corbetti adults used for bioassay were obtained from a colony maintained continuously under laboratory conditions. For testing purposes, the test compound is diluted in a 1:1 mixture of acetone:water (vol:vol), plus 0.01% vol/vol Alkamuls® EL 620 surfactant.
Thrips potency of each compound was evaluated by using a floral-immersion technique. Plastic petri dishes were used as test arenas. All petals of individual, intact orchid flowers were dipped into treatment solution and allowed to dry. Treated flowers were placed into individual petri dishes along with about 20 adult thrips. The petri dishes were then covered with lids. All test arenas were held under continuous light and a temperature of about 28° C. for duration of the assay. After 3 days, the numbers of live thrips were counted on each flower, and along inner walls of each petri dish. The percent mortality was recorded 72 hours after treatment.

[2] = system: Rice green leafhopper (Nephotettix virescens); assay: CE.2 Rice green leafhopper spray test on rice seedlings, comparison with comparative compound; assay type: in vivo; settings: for % activity (mortality of Rice green leafhopper in %, vs. untreated control): sprayed rice seedlings, after 72 hours
Experimental: as §1
Rice seedlings were cleaned and washed 24 hours before spraying. The active compounds were formulated in 50:50 acetone:water (vol:vol), and 0.1% vol/vol surfactant (EL 620) was added. Potted rice seedlings were sprayed with 5 ml test solution, air dried, placed in cages and inoculated with 10 adults. Treated rice plants were kept at about 28-29° C. and relative humidity of about 50-60%. Percent mortality was recorded after 72 hours.

[3] = percent mortality 72 hours after treatment

| SMILES | % activity (mortality of Orchid thrips in %, vs. untreated control) ([1]; 10 ppm active ingredient) | % activity (mortality of Orchid thrips in %, vs. untreated control) ([1]; 100 ppm active ingredient) | % activity (mortality of Orchid thrips in %, vs. untreated control) ([1]; 300 ppm active ingredient) | activity against Orchid thrips in comparison with comparative compound CC-1 [1, 3] | % activity (mortality of Rice green leafhopper in %, vs. untreated control) ([2]; 100 ppm active ingredient) | % activity (mortality of Rice green leafhopper in %, vs. untreated control) ([2]; 300 ppm active ingredient) | % activity (mortality of Rice green leafhopper in %, vs. untreated control) ([2]; 500 ppm active ingredient) | activity against Rice green leafhopper in comparison with comparative compound CC-2 ([2]; percent mortality after 72 hours) | activity against Orchid thrips in comparison with comparative compound CC-2 [1, 3] |
| --- | --- | --- | --- | --- | --- | --- | --- | --- | --- |
| Cc1cc(Cl)cc(C(=O)N=S(C)C)c1NC(=O)c1cc(C(F)F)nn1-c1ncccc1Cl [Compound 4] | 95% | 100% | 100% | superior activity |  |  |  |  |  |
| Cc1cc(Cl)cc(C(=O)N=S(C(C)C)C(C)C)c1NC(=O)c1cc(C(F)F)nn1-c1ncccc1Cl [Compound 25] | 95% | 100% | 100% |  | 50% | 100% | 100% | superior activity | superior activity |
